Values quoted from earlier work, collected in US20130316017A1, “Oral Composition for the Treatment of Acne” (priority 2012, published 2013).

Tests used:
[1] = tested on: sebum; details: in vivo
[2] = short-term (0-3 hours)

short-term availability of curcumin and any other compound in the composition [2]	SMILES	reduction of sebum [1]
–	CC(C)(CO)[C@@H](O)C(=O)NCCC(=O)O [vitamin B5]	reduce sebum
improve	O=C(/C=C/C=C/c1ccc2c(c1)OCO2)N1CCCCC1 [Piperine]	–
